This passage reports IC50 results from patent publication US12209074B2, “SHP2 phosphatase allosteric inhibitor” (BEIJING SHENOGEN PHARMA GROUP LTD., priority 2019, dated 2025).

In general, IC50 refers to the concentration that inhibits the measured activity by half.

One experiment addresses SHP2 (Homo sapiens (Human), UniProt Q06124). The experiment in a line: Detection of in vitro SHP2 protein activity by DiFMUP fluorescence. Format: biochemical. The following applies: read-out: Phosphatase activity SHP2 IC50; DiFMUP substrate, fluorescence Ex340/Em450, 60 min pre-incubation with polypeptide; read-out: Proteinase activity SHP2 IC50. From the text:
The screening method of SHP2 protein activity was established by fluorescence detection. The basic principle is: SHP2 as phosphatase can catalyze the dephosphorization of DiFMUP to form DiFMU and free phosphate groups. The product DiFMU emits fluorescence under 340 nm excitation, and 450 nm emission is collected. If the binding of small molecule compounds with SHP2 can inhibit the activity of SHP2 enzyme, the 450 nm emission light detected will be weakened, and the activity of SHP2 enzyme will be finally reflected by the intensity of fluorescence value.
The specific operation was as follows: the 10 mM compound stock solution was diluted to 1 mM with DMSO, and then diluted 3 times with DMSO. 95 μL reaction buffer (60 mM HEPES), 75 mM NaCl, 75 mM KCl, 1 mM EDTA, 5 mM DTT, 1 μL gradient diluted compound, 2 μL SHP2 (concentration was 2 μg/μL) and 1 μL polypeptide (concentration was 50 mM) were added into each well of a 96 well flat clear bottom black plate (costar, 3603). The above test mixture was incubated at room temperature in dark for 60 minutes. Then 2 μL of 10 mM DiFMUP was added into each well, and was incubated at room temperature for 30 minutes. Fluorescence value was determined in the enzyme reader at Ex340/Em450. IC50 of the compounds was obtained by the data analysis software Prism.

Experiment [1] relates to Human non-small cell lung cancer NCI-H358. Description: Cell proliferation assay (CellTiter-Glu) in NCI-H358. It counts as cell-based. The following applies: 5 days, NCI-H358 cells, cell viability by CellTiter-Glu, compound 0.3 nM-2 μM, medium and compound renewed after 3 days. The method, then: Cell proliferation inhibition screening method was established by CellTier-Glu® test reagent from Promega.
Human non-small cell lung cancer NCI-H358 was cultured by RPMI-1640 (Gibco®) medium with 10% fetal bovine serum (Gibco®) at 37° C., 95% air and 5% CO2, in 25 cm^2 or 75 cm^2 plastic culture bottle ((Nunc®) and passaged 2-3 times a week.
The cells were seeded on the 96 well cell culture plate (Nunc®) at the density of 2*10^3/well, 90 μL/well, and cultured at 37° C., 95% air and 5% CO2. The compound to be tested was added 24 hours later: the compound was diluted 3 times with DMSO from the concentration of 2 mM compound (dissolved in DMSO). […] 10 μL of the compound diluted by culture medium was added into the culture plate seeded with cells. The final concentration of DMSO in cell culture medium was 0.1%, and the final concentration of test compound was 0.3 nM-2 μM. The cells were incubated at 37° C. for 3 days. The culture medium was substituted with 90 μL/well fresh complete medium. According to the above diluting method of compounds, the compound to be tested was added.
After 5 days, cell viability was tested by CellTiter-Glu (Promega) kit, and finally, the semi-inhibitory concentration of compounds on cell proliferation, i.e. IC50 was calculated by Prism program.

The target of another experiment is hERG channel (Homo sapiens (Human), UniProt Q12809). Description: hERG inhibitory activity, whole cell patch clamp in hERG-transfected HEK293 cells. The conditions noted are these: HEK293 cells transfected with hERG, tail current, tested at 30, 10, 2, 0.5, 0.1 μM. It counts as cell-based. The procedure:
Patch Clamp Amplifier System (Multiclamp 700B Amplifier) (AXON), Olympus microscope (Olympus IX51/71/73), and MP285 micromanipulator were used.
HEK293 cell line for transfecting hERG was purchased from Invitrogen Company. The cells were grown in the culture medium with 85% DMEM, 10% fetal bovine serum, 0.1 mM NEAA, 25 mM HEPES buffer, 100 U/mL penicillin-streptomycin, 5 μg/mL blasticidin and 400 μg/mL G418 geneticin.
The cells were passaged three times a week and digested with TrypLE Express to maintain a fusion degree of about 40% to 80%. Before testing, the cells were seeded at the density of 5*10^5 cells/petri dish with a diameter of 6 cm and the cells were induced with 1 μg/ml doxycycline for 48 hours.
The test concentration of the compound solution was 30, 10, 2, 0.5, 0.1 μM after 1000-fold dilution and the final concentration of DMSO was in the range of 0.1%.
The manipulator was adjusted to move the electrode tip to the cell surface to form a high sealing. Liquid connection potential and fast capacitance were compensated, and the cell membrane was broken to form a whole cell recording mode. The membrane potential was set as −60 mV to ensure that the HERG channel was not opened. Cslow on the amplifier was used to eliminate the peak of capacity current. Holding voltage was set as […]. The leakage current test was performed at −80 mV for 500 ms. +30 mV was depolarized for 4.8 seconds, and HERG channel was activated. The voltage was restored to −50 mV for 5.2 seconds, and the tail current was observed. Peak current suppression=[1−(peak tail currentinhibitor−peak tail currentpositive control)/(peak tail currentblank−peak tail currentpositive control)]*100
The dose response curve of hERG current inhibition rate versus the concentration of the tested compound was plotted by using Graphpad Prism 8.0 software.
(In general: Block of hERG is tested as a sign of cardiac risk.)

Sequence of hERG channel (Q12809 whole entry): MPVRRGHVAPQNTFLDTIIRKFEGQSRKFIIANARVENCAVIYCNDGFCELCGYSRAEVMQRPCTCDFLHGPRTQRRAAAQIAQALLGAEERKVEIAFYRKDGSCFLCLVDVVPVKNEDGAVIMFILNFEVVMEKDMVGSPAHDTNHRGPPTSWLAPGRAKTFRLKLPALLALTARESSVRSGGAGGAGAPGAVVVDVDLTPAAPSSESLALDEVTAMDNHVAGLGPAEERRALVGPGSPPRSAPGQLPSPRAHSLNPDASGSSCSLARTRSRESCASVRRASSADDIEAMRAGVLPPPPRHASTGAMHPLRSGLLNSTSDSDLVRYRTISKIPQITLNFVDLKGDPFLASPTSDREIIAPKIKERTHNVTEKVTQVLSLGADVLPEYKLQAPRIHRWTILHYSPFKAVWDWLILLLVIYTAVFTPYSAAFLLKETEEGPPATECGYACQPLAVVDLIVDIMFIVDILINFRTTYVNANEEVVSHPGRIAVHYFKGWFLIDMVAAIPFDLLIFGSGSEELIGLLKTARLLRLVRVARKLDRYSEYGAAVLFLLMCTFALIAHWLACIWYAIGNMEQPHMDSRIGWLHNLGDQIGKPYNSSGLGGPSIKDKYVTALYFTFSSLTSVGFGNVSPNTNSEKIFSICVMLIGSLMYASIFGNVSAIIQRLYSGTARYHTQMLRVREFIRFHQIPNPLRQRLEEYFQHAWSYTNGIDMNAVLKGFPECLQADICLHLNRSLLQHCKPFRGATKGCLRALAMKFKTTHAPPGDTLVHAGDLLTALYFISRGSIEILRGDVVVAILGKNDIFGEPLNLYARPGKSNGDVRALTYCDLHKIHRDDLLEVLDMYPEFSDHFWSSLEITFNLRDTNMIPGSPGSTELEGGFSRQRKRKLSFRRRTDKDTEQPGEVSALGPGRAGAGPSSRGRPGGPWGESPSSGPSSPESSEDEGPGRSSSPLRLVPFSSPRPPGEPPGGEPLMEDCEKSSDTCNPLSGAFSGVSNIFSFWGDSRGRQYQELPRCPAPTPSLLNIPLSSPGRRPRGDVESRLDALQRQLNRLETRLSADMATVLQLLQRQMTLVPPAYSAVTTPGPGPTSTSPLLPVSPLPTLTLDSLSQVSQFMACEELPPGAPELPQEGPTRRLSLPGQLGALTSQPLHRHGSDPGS
Sequence of SHP2 (Q06124 whole entry, species assumed): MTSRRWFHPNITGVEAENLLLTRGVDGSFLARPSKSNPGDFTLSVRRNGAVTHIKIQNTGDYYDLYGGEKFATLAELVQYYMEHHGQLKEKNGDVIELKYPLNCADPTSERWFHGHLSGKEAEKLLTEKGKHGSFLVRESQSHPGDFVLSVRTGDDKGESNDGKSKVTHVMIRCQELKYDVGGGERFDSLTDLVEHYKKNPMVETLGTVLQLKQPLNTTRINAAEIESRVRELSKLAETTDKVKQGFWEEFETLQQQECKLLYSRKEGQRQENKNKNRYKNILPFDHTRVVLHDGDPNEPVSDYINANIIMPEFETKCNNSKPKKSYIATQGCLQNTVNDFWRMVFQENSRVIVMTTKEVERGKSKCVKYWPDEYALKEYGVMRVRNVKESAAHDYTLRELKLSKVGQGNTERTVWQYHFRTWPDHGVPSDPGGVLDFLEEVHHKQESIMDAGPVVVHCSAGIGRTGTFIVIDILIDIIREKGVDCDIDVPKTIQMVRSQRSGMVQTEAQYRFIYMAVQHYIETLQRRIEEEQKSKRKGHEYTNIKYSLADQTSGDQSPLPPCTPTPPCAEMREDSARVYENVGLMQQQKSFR

Consider `Cc1nc(N2CCC3(CC2)Cc2ccccc2[C@H]3N)c(CO)nc1-c1cccc(Cl)c1Cl` [Compound 1, (S)-(3-(1-amino-1,3-dihydrospiro[indene-2,4′-piperidin]-1′-yl)-6-(2,3-dichlorophenyl)-5-methylpyrazin-2-yl)methanol], for which the IC50 at SHP2 was 9 nM; in experiment [1], 88 nM; against hERG channel, under 100 nM.

For the compound `Cc1nc(N2CCC3(CC2)Cc2ccc(C#N)cc2[C@H]3N)c(CO)nc1-c1cccc(Cl)c1Cl` [Compound 2, (S)-1-amino-1′-(5-(2,3-dichlorophenyl)-3-(hydroxymethyl)-6-methylpyrazin-2-yl)-1,3-dihydrospiro[indene-2,4′-piperidine]-6-carbonitrile], the IC50 on SHP2 was determined as 35 nM; in experiment [1] it was 84 nM.

For `Cc1nc(N2CCC3(CC2)Cc2ncccc2[C@H]3N)c(CO)nc1-c1cccc(Cl)c1Cl` [Compound 13, (S)-(3-(5-amino-5,7-dihydrospiro[cyclopenta[b]pyridine-6,4′-piperidin]-1′-yl)-6-(2,3-dichlorophenyl)-5-methylpyrazin-2-yl)methanol], the IC50 in experiment [1] is 1.6 nM; at hERG channel, under 100 nM.

As to `Cc1ccc2c(c1)[C@@H](N)C1(CCN(c3nc(C)c(-c4ccnc(Cl)c4Cl)nc3CO)CC1)C2` [Compound 21], the IC50 in experiment [1] was found to be 11 nM; against hERG channel, 3030 nM.

The compound `COc1ccc(-c2nc(CO)c(N3CCC4(CC3)Cc3ccccc3[C@H]4N)nc2C)c(Cl)c1` [Compound 41] came in with an IC50 in experiment [1] of 97 nM.

`Cc1nc(N2CCC3(CC2)Cc2ccccc2[C@H]3N)c(CO)nc1-c1ccc(S(C)(=O)=O)cc1Cl` [Compound 42]: 732 nM corresponded to half-maximal inhibition in experiment [1] (IC50).

`Cc1nc(N2CCC3(CC2)Cc2ccccc2[C@H]3N)c(CO)nc1-c1cncc(Cl)c1Cl` [Compound 43] gave a 50% inhibitory concentration (IC50) in experiment [1] of 225 nM.

Take `Cc1nc(N2CCC3(CC2)Cc2ccccc2[C@H]3N)c(CO)nc1-c1cncc(Cl)c1` [Compound 44]: in experiment [1], the IC50 is over 1000 nM.

Take `Cc1nc(N2CCC3(CC2)Cc2ccccc2[C@H]3N)c(CO)nc1-c1cnc(N)cc1Cl` [Compound 45]: the IC50 in experiment [1] was over 1000 nM.

`COc1ccc(-c2nc(CO)c(N3CCC4(CC3)Cc3ncccc3[C@H]4N)nc2C)c(Cl)c1` [Compound 46] displayed an IC50 in experiment [1] of 379 nM.

For the compound `Cc1nc(N2CCC3(CC2)Cc2ccccc2[C@H]3N)c(CO)nc1-c1cc(N)nc(Cl)c1Cl` [Compound 47], the figures for the IC50 (in experiment [1]; on hERG channel) were 30 nM and 4290 nM, respectively.

Consider `Cc1ccc2c(c1)[C@H](N)C1(CCN(c3nc(C)c(-c4ccnc(Cl)c4Cl)nc3CO)CC1)C2` [Compound 48], for which, in experiment [1], the IC50 is over 1000 nM.

Take `Cc1cnc2c(c1)[C@@H](N)C1(CCN(c3nc(C)c(-c4ccnc(Cl)c4Cl)nc3CO)CC1)C2` [Compound 49]: the IC50 in experiment [1] amounted to 28 nM; at hERG channel, 1800 nM.

The compound `Cc1cnc2c(c1)[C@H](N)C1(CCN(c3nc(C)c(-c4ccnc(Cl)c4Cl)nc3CO)CC1)C2` [Compound 50] gave an IC50 in experiment [1] of 453 nM.

As to `Cc1cnc2c(c1)[C@@H](N)C1(CCN(c3nc(C)c(-c4ccncc4Cl)nc3CO)CC1)C2` [Compound 51], in experiment [1], the IC50 was determined as 81 nM.

On to `Cc1cnc2c(c1)[C@H](N)C1(CCN(c3nc(C)c(-c4ccncc4Cl)nc3CO)CC1)C2` [Compound 52], for which the IC50 in experiment [1] was over 1000 nM.

`COc1ccc(-c2nc(CO)c(N3CCC4(CC3)Cc3ccccc3[C@H]4N)nc2C)c(Cl)c1Cl` [Compound 53] came in with an IC50 in experiment [1] of 328 nM.

With `Cc1nc(N2CCC3(CC2)Cc2ccccc2[C@H]3N)c(CO)nc1-c1cc(N)nc(C)c1Cl` [Compound 54], the IC50 in experiment [1] worked out at 83 nM.

On to `Cc1ccnc(-c2nc(CO)c(N3CCC4(CC3)Cc3ccccc3[C@H]4N)nc2C)c1Cl` [Compound 55], for which the IC50 in experiment [1] is over 1000 nM.

For the compound `COc1ccc(-c2nc(CO)c(N3CCC4(CC3)Cc3ccccc3[C@H]4N)nc2C)c(Cl)n1` [Compound 56], in experiment [1], the IC50 came to 182 nM.

Regarding `Cc1nc(N2CCC3(CC2)Cc2ccccc2[C@H]3N)c(CO)nc1-c1ccc(=O)[nH]c1Cl` [Compound 57], the IC50 in experiment [1] is over 1000 nM.

As for `CNc1cc(Cl)c(-c2nc(CO)c(N3CCC4(CC3)Cc3ccccc3[C@H]4N)nc2C)cn1` [Compound 58], the IC50 in experiment [1] is over 1000 nM.

Regarding `CNc1ccc(-c2nc(CO)c(N3CCC4(CC3)Cc3ccccc3[C@H]4N)nc2C)c(Cl)c1C(F)(F)F` [Compound 59], in experiment [1], the IC50 was 115 nM.

`Cc1cnc2c(c1)[C@@H](N)C1(CCN(c3nc(C)c(-c4ccnc(C)c4Cl)nc3CO)CC1)C2` [Compound 60] had a half-inhibitory concentration (IC50) in experiment [1] of 75 nM.

Turning to `Cc1cncc(-c2nc(CO)c(N3CCC4(CC3)Cc3ccccc3[C@H]4N)nc2C)c1Cl` [Compound 61], the IC50 in experiment [1] was 63 nM.

For the compound `Cc1nc(N2CCC3(CC2)Cc2ccccc2[C@H]3N)c(CO)nc1-c1ccnc(C(F)(F)F)c1Cl` [Compound 62], the IC50 is 15 nM in experiment [1] and 4230 nM on hERG channel.

In experiment [1], `Cc1ccc2c(c1)[C@@H](N)C1(CCN(c3nc(C)c(-c4cc(N)nc(Cl)c4Cl)nc3CO)CC1)C2` [Compound 63] registered an IC50 of 40 nM.

Turning to `Cc1cnc2c(c1)[C@@H](N)C1(CCN(c3nc(C)c(-c4cc(N)nc(Cl)c4Cl)nc3CO)CC1)C2` [Compound 64], the IC50 stood at 22 nM in experiment [1] and 6130 nM against hERG channel.

In experiment [1], `Cc1cnc2c(c1)[C@@H](N)C1(CCN(c3nc(C)c(-c4ccnc(Cl)c4Cl)nc3C(C)O)CC1)C2` (some centres unmarked) [Compound 68] registered an IC50 of 530 nM.

With `COc1ccc2c(c1)[C@@H](N)C1(CCN(c3nc(C)c(-c4ccnc(Cl)c4Cl)nc3CO)CC1)C2` [Compound 72], the values for the IC50 (in experiment [1]; at hERG channel) were 65.9 nM and 2590 nM, respectively.

`COc1nccc(-c2nc(CO)c(N3CCC4(CC3)Cc3ncc(C)cc3[C@H]4N)nc2C)c1Cl` [Compound 76]: the IC50 in experiment [1] is 25 nM; on hERG channel it was 2110 nM.

For the compound `Cc1nc(N2CCC3(CC2)Cc2ccccc2[C@H]3N)c(CO)nc1-c1ccnc(C#N)c1Cl` [Compound 77], the IC50 in experiment [1] is 33 nM; on hERG channel it was 620 nM.
